Measurements taken from patent publication US8178658B2 (Dow AgroSciences, LLC, priority 2008, dated 2012).
Read-outs that look alike come from different tables or passages of the source.

Assays:
[1] = tested on: beet armyworm (BAW; Spodoptera exigua: Lepidoptera); assay: 96-well microtiter plate-based high throughput (HTS) diet bioassay on beet armyworm (BAW HTS); format: in vivo; details: for pest or weed control at 12 µg/well, 12 µg/well: Spodoptera exigua, 144 h, read-out: BAW HTS
In short: (§1)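 HTS: eggs on diet topped with 12 μg cpd/well; dark, 29° C; mortality day 6; mean of 6 reps. Tray: 3–5 L2 larvae/well; diet dosed 50 μg/cm^2; 25° C, 14:10 L:D; 6 d; mean of 8 wells. Scored as ≥50% mortality or not.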

[2] = tested on: beet armyworm (BAW; Spodoptera exigua: Lepidoptera); assay: 128-well diet tray assay on beet armyworm (BAW 50); format: in vivo; details: for pest or weed control at 50 µg/cm2, 50 µg/cm2: Spodoptera exigua, 144 h, read-out: BAW 50 ug/cm2
In short: as §1

[3] = 96-well HTS diet assay, BAW eggs, 12 μg test compound per well, mortality at 6 d post-treatment, mortality class
[4] = 96-well microtiter plate HTS diet assay, 12 μg test compound per well, BAW eggs, mortality at 6 d post-treatment, mortality class
[5] = 128-well diet tray assay, 50 μg/cm^2 of test compound on diet, second instar BAW larvae, mortality class
[6] = 128-well diet tray assay, second instar BAW larvae, 50 μg/cm^2 of test compound on diet, mortality class

| Compound | BAW HTS [1, 3] | BAW HTS [1, 4] | BAW 50 ug/cm2 [2, 5] | pest or weed control at 12 µg/well, 12 µg/well [1, 3] [%] | pest or weed control at 50 µg/cm2, 50 µg/cm2 [2, 6] [%] | pest or weed control at 12 µg/well, 12 µg/well [1] [%] | pest or weed control at 50 µg/cm2, 50 µg/cm2 [2] [%] |
| --- | --- | --- | --- | --- | --- | --- | --- |
| COC1C(C)OC(ON=C(C)c2cccc(-c3cn(-c4ccc(OC(F)(F)F)cc4)cn3)c2)C(OC)C1OC (stereo not shown) [Compound 166] | B (either (1) the compound was tested and less than 50 percent mortality was observed or (2) the compound was not tested) | B (either (1) the compound was tested and less than 50 percent mortality was observed or (2) the compound was not tested) | A (the compound was tested and at least 50 percent mortality was observed) |  |  |  |  |
| COC1C(C)OC(ON=C(C)c2ccc(Cl)c(-c3cn(-c4ccc(OC(F)(F)F)cc4)cn3)c2)C(OC)C1OC (stereo not shown) [Compound 167] | B (either (1) the compound was tested and less than 50 percent mortality was observed or (2) the compound was not tested) | B (either (1) the compound was tested and less than 50 percent mortality was observed or (2) the compound was not tested) | A (the compound was tested and at least 50 percent mortality was observed) |  |  |  |  |
| COC1C(C)OC(ON=C(C)c2ccc(F)c(-c3cn(-c4ccc(OC(F)(F)F)cc4)cn3)c2)C(OC)C1OC (stereo not shown) [Compound 168] | A (the compound was tested and at least 50 percent mortality was observed) | A (the compound was tested and at least 50 percent mortality was observed) | A (the compound was tested and at least 50 percent mortality was observed) |  |  |  |  |
| CCO[C@@H]1[C@@H](OC)[C@H](C)O[C@@H](O/N=C2\CCc3cc(-c4ncn(-c5ccc(OC(F)(F)F)cc5)n4)ccc32)[C@@H]1OC [Compound 170, 5-[1-(4-trifluoromethoxyphenyl)-1H-[1,2,4]triazol-3-yl]-indan-1-one O-((2S,3R,4R,5S,6S)-4-ethoxy-3,5-dimethoxy-6-methyl-tetrahydropyran-2-yl)-oxime] |  | B (either (1) the compound was tested and less than 50 percent mortality was observed or (2) the compound was not tested) | A (the compound was tested and at least 50 percent mortality was observed) | < 50 | > 50 |  |  |
| CO[C@@H]1[C@@H](OC)[C@H](C)O[C@@H](ONC(=O)c2ccc(-c3cn(-c4ccc(OC(F)(F)F)cc4)cn3)cc2)[C@@H]1OC [Compound 171, 4-[1-(4-trifluoromethoxyphenyl)-1H-imidazol-4-yl]-N-((2S,3R,4R,5S,6S)-3,4,5-trimethoxy-6-methyl-tetrahydropyran-2-yloxy)-benzamide] |  | A (the compound was tested and at least 50 percent mortality was observed) | A (the compound was tested and at least 50 percent mortality was observed) | > 50 | > 50 |  |  |
| CO[C@@H]1[C@@H](OC)[C@H](C)O[C@@H](OC(=O)Nc2ccc(C3=NN(c4cccc(Cl)c4)CC3)cc2)[C@@H]1OC [Compound 172] | B (either (1) the compound was tested and less than 50 percent mortality was observed or (2) the compound was not tested) | B (either (1) the compound was tested and less than 50 percent mortality was observed or (2) the compound was not tested) | A (the compound was tested and at least 50 percent mortality was observed) |  |  |  |  |
| CO[C@@H]1[C@@H](OC)[C@H](C)O[C@@H](OC(=O)Nc2ccc(-c3cn(-c4ccc(OC(F)(F)F)cc4)cn3)cc2)[C@@H]1OC [Compound 173] | A (the compound was tested and at least 50 percent mortality was observed) | A (the compound was tested and at least 50 percent mortality was observed) | A (the compound was tested and at least 50 percent mortality was observed) |  |  |  |  |
| CO[C@@H]1[C@@H](OC)[C@H](C)O[C@H](OC(=O)Nc2ccc(-c3cn(-c4ccc(OC(F)(F)F)cc4)cn3)cc2)[C@@H]1OC [Compound 174] | A (the compound was tested and at least 50 percent mortality was observed) | A (the compound was tested and at least 50 percent mortality was observed) | A (the compound was tested and at least 50 percent mortality was observed) |  |  |  |  |
| CCCCO[C@@H]1[C@@H](OC)[C@H](C)O[C@@H](OC(=O)Nc2ccc(-c3cn(-c4ccc(OC(F)(F)F)cc4)cn3)cc2)[C@@H]1OC [Compound 175] | A (the compound was tested and at least 50 percent mortality was observed) | A (the compound was tested and at least 50 percent mortality was observed) | A (the compound was tested and at least 50 percent mortality was observed) |  |  |  |  |
| CO[C@@H]1[C@@H](OC)[C@H](C)O[C@@H](OC(=S)Nc2ccc(-c3cn(-c4ccc(OC(F)(F)F)cc4)cn3)cc2)[C@@H]1OC [Compound 176] |  | B (either (1) the compound was tested and less than 50 percent mortality was observed or (2) the compound was not tested) | A (the compound was tested and at least 50 percent mortality was observed) |  |  | < 50 | > 50 |
| CCO[C@@H]1[C@@H](OC)[C@H](C)O[C@@H](SC(=O)Nc2ccc(-c3cn(-c4ccc(OC(F)(F)F)cc4)cn3)cc2)[C@@H]1OC [Compound 177] |  | A (the compound was tested and at least 50 percent mortality was observed) | B (either (1) the compound was tested and less than 50 percent mortality was observed or (2) the compound was not tested) |  |  | > 50 | < 50 |
| CCO[C@@H]1[C@@H](OC)[C@H](C)O[C@@H](OC(=O)Nc2ccc(C3=NN(c4ccc(OC(F)(F)F)cc4)CC3)cc2)[C@@H]1OC [Compound 178] | B (either (1) the compound was tested and less than 50 percent mortality was observed or (2) the compound was not tested) | B (either (1) the compound was tested and less than 50 percent mortality was observed or (2) the compound was not tested) | A (the compound was tested and at least 50 percent mortality was observed) |  |  |  |  |
| CCO[C@@H]1[C@@H](OC)[C@H](C)O[C@@H](OC(=O)Nc2ccc(C3=NN(c4ccc(OC(F)(F)C(F)(F)F)cc4)CC3)cc2)[C@@H]1OC [Compound 179] | B (either (1) the compound was tested and less than 50 percent mortality was observed or (2) the compound was not tested) | B (either (1) the compound was tested and less than 50 percent mortality was observed or (2) the compound was not tested) | A (the compound was tested and at least 50 percent mortality was observed) |  |  |  |  |
| CCO[C@@H]1[C@@H](OC)[C@H](C)O[C@@H](OC(=O)Nc2ccc(C3=NOC(c4ccc(C(F)(F)F)cc4)C3)cc2)[C@@H]1OC (stereo partly shown) [Compound 181] | A (the compound was tested and at least 50 percent mortality was observed) | A (the compound was tested and at least 50 percent mortality was observed) | A (the compound was tested and at least 50 percent mortality was observed) |  |  |  |  |
| CCO[C@@H]1[C@@H](OC)[C@H](C)O[C@H](OC(=O)Nc2ccc(C3=NOC(c4ccc(C(F)(F)F)cc4)C3)cc2)[C@@H]1OC (stereo partly shown) [Compound 182] | B (either (1) the compound was tested and less than 50 percent mortality was observed or (2) the compound was not tested) | B (either (1) the compound was tested and less than 50 percent mortality was observed or (2) the compound was not tested) | B (either (1) the compound was tested and less than 50 percent mortality was observed or (2) the compound was not tested) |  |  |  |  |
| CCO[C@@H]1[C@@H](OC)[C@H](C)O[C@@H](OC(=O)Nc2ccc(C3CC(c4ccc(OC(F)(F)F)cc4)=NO3)cc2)[C@@H]1OC (stereo partly shown) [Compound 183] | A (the compound was tested and at least 50 percent mortality was observed) | A (the compound was tested and at least 50 percent mortality was observed) | A (the compound was tested and at least 50 percent mortality was observed) |  |  |  |  |
| CCO[C@@H]1[C@@H](OC)[C@H](C)O[C@H](OC(=O)Nc2ccc(C3CC(c4ccc(OC(F)(F)F)cc4)=NO3)cc2)[C@@H]1OC (stereo partly shown) [Compound 184] | B (either (1) the compound was tested and less than 50 percent mortality was observed or (2) the compound was not tested) | B (either (1) the compound was tested and less than 50 percent mortality was observed or (2) the compound was not tested) | B (either (1) the compound was tested and less than 50 percent mortality was observed or (2) the compound was not tested) |  |  |  |  |
| CCO[C@@H]1[C@@H](OC)[C@H](C)O[C@@H](OC(=O)Nc2ccc(C3=NCC(c4ccc(OC(F)(F)F)cc4)O3)cc2)[C@@H]1OC (stereo partly shown) [Compound 185] | B (either (1) the compound was tested and less than 50 percent mortality was observed or (2) the compound was not tested) | B (either (1) the compound was tested and less than 50 percent mortality was observed or (2) the compound was not tested) | B (either (1) the compound was tested and less than 50 percent mortality was observed or (2) the compound was not tested) |  |  |  |  |
| CCO[C@@H]1[C@@H](OC)[C@H](C)O[C@@H](OC(=O)Nc2ccc(C3COC(c4ccc(OC(F)(F)F)cc4)=N3)cc2)[C@@H]1OC (stereo partly shown) [Compound 186] | B (either (1) the compound was tested and less than 50 percent mortality was observed or (2) the compound was not tested) | B (either (1) the compound was tested and less than 50 percent mortality was observed or (2) the compound was not tested) | A (the compound was tested and at least 50 percent mortality was observed) |  |  |  |  |
